Consider 9 compounds from US20210371459A1, “DIMERIC PEPTIDE INHIBITORS OF APOPTOSIS PROTEINS” (Hepagene Therapeutics (HK) Limited, priority 2017, published 2021).

Conditions in all cases: FP, probe AbuRPFK-5FAM, 60 min at 25° C.
One assay concerns the target T1, cIAP2-BIR3 (Homo sapiens, UniProt Q13489).
T1 construct: cIAP2-BIR3; Reaction Biology; APT-11-372; purchased Reaction Biology APT-11-372
In words: cIAP2-BIR3 fluorescence polarization binding assay. The source says:
(§1) IAPs are one main cause of cancer development and may result from overexpression of anti-apoptotic proteins. This protocol establishes three binding assays for XIAP Bir3 domain, cIAP1 and cIAP2 using FP (Fluorescence polarization) technology. The fluorescence probe used is a synthetic peptide conjugated to 5-carboxyfluorescein (AbuRPFK-5FAM). The fluorescence polarization value (mP) was detected by Envision, which was used to reflect the binding degree of protein and fluorescent marker. Reagents and equipment used in the assay are listed below, followed by the protocol.
(§2) • a) Prepare 100 times of the final cpd concentration in appropriate tube and transfer 5 uL compound (“cpd”) to 45 μL 1× reaction buffer with 10% DMSO. • b) The final reference cpd concentration is 10000, 3333.3, 1111.1, 370.4, 123.4, 41.2, 13.7, 4.57, 1.52, 0.51, 0.17 and 0 nM. So the 100 times of the concentration is 1000, 333.3, 111.1, 37.04, 12.34, 4.12, […], 0.15, 0.05, 0.017 and 0 μM. The final test cpds concentration is 3333.3, 1111.1, 370.4, 123.4, 41.2, 13.7, 4.57, 1.52, 0.51, 0.17, 0.057 and 0 nM. So the 100 times of the concentration is 333.3, 111.1, 37.04, 12.34, 4.12, […], 0.15, 0.05, 0.017, 0.0057 and 0 μM • c) Add 8 μL/well each dose enzyme to 384 well microplate (ProxiPlate-384 F Plus, 6008260) using multichannel pipette, prepared in step 2.1.1.2 • d) Centrifuge at 1000 rpm. • e) Add 2 μL/well cpd to 384 well microplate (ProxiPlate-384 F Plus, 6008260) using multichannel pipette, prepared in step a). • f) Centrifuge at 1000 rpm. RT, 15 min. • g) Start the assay by adding 10 uL/well substrate (prepared in step 2.1.1.3) to the same 384 well microplate using multichannel pipette • h) Centrifuge at 1000 rpm. • i) Cover the assay plate and incubate for 60 min at 25° C. • j) Read on Envision 2104 for mP and plot the IC50s with mP values. • k) Data analysis: IC50s were determined based on a non-linear regression analysis of data collected.
(In general: Polarisation of emitted light reports the rotation of a fluorescent probe.)

A further assay addresses T2, XIAP-BIR3 (Homo sapiens, UniProt P98170).
T2 construct: purchased Reaction Biology APT-11-374
In words: XIAP-BIR3 fluorescence polarization binding assay.
Text: as §1, §2

For another assay, the target named is T3, cIAP1-BIR3 (Homo sapiens, UniProt Q13490).
T3 construct: cIAP1-BIR3; Reaction Biology; APT-11-370; purchased Reaction Biology APT-11-370
T3 sequence (Q13490 253-363 limits assumed): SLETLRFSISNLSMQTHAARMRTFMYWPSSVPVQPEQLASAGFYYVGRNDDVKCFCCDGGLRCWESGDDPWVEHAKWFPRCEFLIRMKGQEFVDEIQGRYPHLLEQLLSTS
The assay is described as follows: cIAP1-BIR3 fluorescence polarization binding assay.
Text: as §1, §2

T1 sequence (Q13489 238-349 limits assumed): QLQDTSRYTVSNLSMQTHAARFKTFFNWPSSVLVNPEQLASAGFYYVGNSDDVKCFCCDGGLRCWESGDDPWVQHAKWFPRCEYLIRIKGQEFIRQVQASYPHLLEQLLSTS
T2 sequence (P98170 241-356 limits assumed): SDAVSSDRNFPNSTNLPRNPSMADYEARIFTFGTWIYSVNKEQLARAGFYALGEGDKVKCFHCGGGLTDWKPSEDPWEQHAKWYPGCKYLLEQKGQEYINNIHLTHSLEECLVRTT

Consider `CN[C@@H](C)C(=O)N[C@H](C(=O)N1CCC[C@H]1C(=O)N[C@@H]1CCCc2c1cccc2N1CCN(c2cccc3c2CCC[C@H]3NC(=O)[C@@H]2CCCN2C(=O)[C@@H](NC(=O)[C@H](C)NC)C2CCCCC2)CC1)C1CCCCC1` [Compound I, (2S)-1-[(2S)-2-Cyclohexyl-2-[(2S)-2-(methylamino)propanamido]acetyl]-N-[(1R)-5-[4-[(5R)-5-[(2S)-1-[(2S)-2-cyclohexyl-2-[(2S)-2-(methylamino)propanamido]acetyl]pyrrolidine-2-amido]-5,6,7,8-tetrahydronaphthalen-1-yl]piperazin-1-yl]-1,2,3,4-tetrahydronaphthalen-1-yl]pyrrolidine-2-carboxamide], for which the figures for the half-inhibitory concentration (IC50) at cIAP2-BIR3, on XIAP-BIR3 and at cIAP1-BIR3 were 10 to 100 nM, 10 to 100 nM and 0.1 to 10 nM, respectively.
Take `CN[C@@H](C)C(=O)N[C@H](C(=O)N1CCC[C@H]1C(=O)N[C@@H]1CCCc2c1cccc2N1CCN(c2cccc3c2CCC[C@H]3NC(=O)[C@@H]2CCCN2C(=O)[C@@H](NC(=O)[C@H](C)NC)C(C)(C)C)CC1)C(C)(C)C` [Compound I-A, (2S,2′S,29S,34S)—N, N′-((1R,1′R)-5,5′-(Piperazine-1,4-diyl)bis(1,2,3,4-tetrahydronaphthalene-5,1-diyl))bis(1-((S)-3,3-dimethyl-2-((S)-2-(methylamino)propanamido)butanoyl)pyrrolidine-2-carboxamide)]: the 50% inhibitory concentration (IC50) (usually the concentration that inhibits the measured activity by half) lay within 10 to 100 nM at cIAP2-BIR3, 100 to 1000 nM on XIAP-BIR3 and 0.1 to 10 nM at cIAP1-BIR3.
On to `CC[C@H](NC(=O)[C@H](C)NC)C(=O)N1CCC[C@H]1C(=O)N[C@@H]1CCCc2c1cccc2N1CCN(c2cccc3c2CCC[C@H]3NC(=O)[C@@H]2CCCN2C(=O)[C@H](CC)NC(=O)[C@H](C)NC)CC1` [Compound I-B, (2S)-1-[(2S)-2-[(2S)-2-(Methylamino)propanamido]butanoyl]-N-[(1R)-5-[4-[(5R)-5-[(2S)-1-[(2S)-2-[(2S)-2-(methylamino)propanamido]butanoyl]pyrrolidine-2-amido]-5,6,7,8-tetrahydronaphthalen-1-yl]piperazin-1-yl]-1,2,3,4-tetrahydronaphthalen-1-yl]pyrrolidine-2-carboxamide], for which the half-inhibitory concentration (IC50) at cIAP2-BIR3 was 10 to 100 nM; on XIAP-BIR3 it was 100 to 1000 nM; on cIAP1-BIR3, 0.1 to 10 nM.
On to `CN[C@@H](C)C(=O)N[C@H](C(=O)N1CCC[C@H]1C(=O)N[C@@H]1CCCc2c1cccc2N1CCN(c2cccc3c2CCC[C@H]3NC(=O)[C@@H]2CCCN2C(=O)[C@@H](NC(=O)[C@H](C)NC)C(C)C)CC1)C(C)C` [Compound I-C, (S)-1-((S)-3-Methyl-2-((S)-2-(methylamino)propanamido)butanoyl)-N—((R)-5-(4-((R)-5-((S)-1-((S)-3-methyl-2-((S)-2-(methylamino)propanamido)butanoyl)pyrrolidine-2-carboxamido)-5,6,7,8-tetrahydronaphthalen-1-yl)piperazin-1-yl)-1,2,3,4-tetrahydronaphthalen-1-yl)pyrrolidine-2-carboxamide], for which the figures for the IC50 on cIAP2-BIR3, on XIAP-BIR3 and at cIAP1-BIR3 were 10 to 100 nM, 10 to 100 nM and 0.1 to 10 nM, respectively.
For `CN[C@@H](C)C(=O)N[C@H](C(=O)N1C[C@@H](OCCCN2CCN(CCCO[C@H]3C[C@@H](C(=O)N[C@@H]4CCCc5ccccc54)N(C(=O)[C@@H](NC(=O)[C@H](C)NC)C4CCCCC4)C3)CC2)C[C@H]1C(=O)N[C@@H]1CCCc2ccccc21)C1CCCCC1` [Compound II, (2S,4S)-1-[(2S)-2-Cyclohexyl-2-[(2S)-2-(methylamino)propanamido]acetyl]-4-[3-[4-(3-[[(3S,5S)-1-[(2S)-2-cyclohexyl-2-[(2S)-2-(methylamino)propanamido]acetyl]-5-[[(1R)-1,2,3,4-tetrahydronaphthalen-1-yl]carbamoyl]pyrrolidin-3-yl]oxy]propyl)piperazin-1-yl]propoxy]-N-[(1R)-1,2,3,4-tetrahydronaphthalen-1-yl]pyrrolidine-2-carboxamide], the values for the IC50 at cIAP2-BIR3, on XIAP-BIR3 and on cIAP1-BIR3 were 10 to 100 nM, 10 to 100 nM and 0.1 to 10 nM, respectively.
Consider `CN[C@@H](C)C(=O)N[C@@H](C)C(=O)N1C[C@@H](OCCCN2CCN(CCCO[C@H]3C[C@@H](C(=O)N[C@@H]4CCCc5ccccc54)N(C(=O)[C@H](C)NC(=O)[C@H](C)NC)C3)CC2)C[C@H]1C(=O)N[C@@H]1CCCc2ccccc21` [Compound II-A, (2S,4S)-1-[(2S)-2-[(2S)-2-(Methylamino)propanamido]propanoyl]-4-{3-[4-(3-{[(3S,5S)-1-[(2S)-2-[(2S)-2-(methylamino)propanamido]propanoyl]-5-{[(1R)-1,2,3,4-tetrahydronaphthalen-1-yl]carbamoyl}pyrrolidin-3-yl]oxy}propyl)piperazin-1-yl]propoxy}-N-[(1R)-1,2,3,4-tetrahydronaphthalen-1-yl]pyrrolidine-2-carboxamide], for which the 50% inhibitory concentration (IC50) at cIAP2-BIR3 lay in the range of 10 to 100 nM; on XIAP-BIR3 it was 100 to 1000 nM; at cIAP1-BIR3, 0.1 to 10 nM.
The corresponding values for `CC[C@H](NC(=O)[C@H](C)NC)C(=O)N1C[C@@H](OCCCN2CCN(CCCO[C@H]3C[C@@H](C(=O)N[C@@H]4CCCc5ccccc54)N(C(=O)[C@H](CC)NC(=O)[C@H](C)NC)C3)CC2)C[C@H]1C(=O)N[C@@H]1CCCc2ccccc21` [Compound II-B, (2S,4S)-1-[(2S)-2-[(2S)-2-(Methylamino)propanamido]butanoyl]-4-{3-[4-(3-{[(3S,5S)-1-[(2S)-2-[(2S)-2-(methylamino)propanamido]butanoyl]-5-{[(1R)-1,2,3,4-tetrahydronaphthalen-1-yl]carbamoyl}pyrrolidin-3-yl]oxy}propyl)piperazin-1-yl]propoxy}-N-[(1R)-1,2,3,4-tetrahydronaphthalen-1-yl]pyrrolidine-2-carboxamide] are 0.1 to 10 nM, 10 to 100 nM and 0.1 to 10 nM.
On to `CN[C@@H](C)C(=O)N[C@H](C(=O)N1C[C@@H](OCCCN2CCN(CCCO[C@H]3C[C@@H](C(=O)N[C@@H]4CCCc5ccccc54)N(C(=O)[C@@H](NC(=O)[C@H](C)NC)C(C)C)C3)CC2)C[C@H]1C(=O)N[C@@H]1CCCc2ccccc21)C(C)C` [Compound II-C, (2S,4S)-1-[(2S)-3-Methyl-2-[(2S)-2-(methylamino)propanamido]butanoyl]-4-{3-[4-(3-{[(3S,5S)-1-[(2S)-3-methyl-2-[(2S)-2-(methylamino)propanamido]butanoyl]-5-{[(1R)-1,2,3,4-tetrahydronaphthalen-1-yl]carbamoyl}pyrrolidin-3-yl]oxy}propyl)piperazin-1-yl]propoxy}-N-[(1R)-1,2,3,4-tetrahydronaphthalen-1-yl]pyrrolidine-2-carboxamide], for which the IC50 on cIAP2-BIR3, at XIAP-BIR3 and on cIAP1-BIR3 was 0.1 to 10 nM each time.
Turning to `CN[C@@H](C)C(=O)N[C@H](C(=O)N1C[C@@H](OCCCN2CCN(CCCO[C@H]3C[C@@H](C(=O)N[C@@H]4CCCc5ccccc54)N(C(=O)[C@@H](NC(=O)[C@H](C)NC)C(C)(C)C)C3)CC2)C[C@H]1C(=O)N[C@@H]1CCCc2ccccc21)C(C)(C)C` [Compound II-D, (2S,4S)-1-[(2S)-3,3-Dimethyl-2-[(2S)-2-(methylamino)propanamido]butanoyl]-4-[3-[4-(3-[[(3S,5S)-1-[(2S)-3,3-dimethyl-2-[(2S)-2-(methylamino)propanamido]butanoyl]-5-[[(1R)-1,2,3,4-tetrahydronaphthalen-1-yl]carbamoyl]pyrrolidin-3-yl]oxy]propyl)piperazin-1-yl]propoxy]-N-[(1R)-1,2,3,4-tetrahydronaphthalen-1-yl]pyrrolidine-2-carboxamide], the half-maximal inhibitory concentration (IC50) fell in the range of 10 to 100 nM on cIAP2-BIR3, 10 to 100 nM on XIAP-BIR3 and 0.1 to 10 nM at cIAP1-BIR3.
